Assay results reported in patent US10322110B2, “Imidazole-based antimicrobial agents” (priority 2014, dated 2019).
Converted amounts (≈) assume the structure as drawn. Where two headings read alike, the source gives them in different places.

Experiments:
[1] = test system: Mycobacterium smegmatis (mc(2)155, ATCC700084); experiment: broth microdilution MIC assay, Mycobacterium smegmatis; settings: MIC activity class
[2] = test system: Staphylococcus aureus MSSA (Newman); experiment: broth microdilution MIC assay, Staphylococcus aureus MSSA (Newman); assay type: cell-based; settings: for MIC: Staphylococcus aureus; for Antibacterial activity Staphylococcus aureus (MSSA): MIC100 class score, broth microdilution
[3] = test system: Bacillus subtilis (Marburg strain, ATCC6051); experiment: microbe, parasite or virus in culture; assay type: cell-based; settings: ATCC6051, read-out: Antibacterial activity BS (Bacillus substilis)
[4] = test system: Human hepatocytes (HepaRG cells); experiment: human cytotoxicity assay in vitro (CellTiter-Glo), hepatocytes; assay type: cell-based; settings: cytotoxicity class
[5] = test system: penicillin-, erythromycin- and tetracycline-resistant Streptococcus pneumoniae (ATCC 700677), ARSP; experiment: microbe, parasite or virus in culture; assay type: cell-based; settings: ATCC700677, MIC activity class, read-out: Antibacterial activity ARSP (multi-drug resistant-SP)
[6] = test system: Staphylococcus aureus MRSA (COL); experiment: broth microdilution MIC assay, Staphylococcus aureus MRSA (COL); assay type: cell-based; settings: for MIC: Staphylococcus aureus, MRSA
[7] = test system: Staphylococcus epidermidis (PCI 1200, ATCC12228); experiment: broth microdilution MIC assay, Staphylococcus epidermidis; assay type: cell-based; settings: ATCC12228, read-out: Antibacterial activity SE (Staphylococcus epidermidis)
[8] = test system: Streptococcus pneumoniae (Chester, ATCC49619); experiment: broth microdilution MIC assay, Streptococcus pneumoniae; assay type: cell-based; settings: MIC100 class score, 24 h
[9] = 24 h, read-out: Antibacterial activity Staphylococcus aureus (MSSA)
[10] = read-out: Antibacterial activity MSSA (Staphylococcus aureus MSSA)
[11] = read-out: Antibacterial activity MRSA (Staphylococcus aureus MRSA)
[12] = MIC100 class score, broth microdilution, 24 h, read-out: Antibacterial activity Staphylococcus aureus (MRSA)
[13] = MIC100 class score, broth microdilution, 24 h

SMILES	Antibacterial activity MS (Mycobacterium smegmatis) [1]	MIC [2, 9]	MIC [2, 10]	MIC [3]	cytotoxicity cell line H (hepatocytes) [4]	MIC [5]	MIC [6, 11]	MIC [6, 12]	MIC [7]	MIC ([6]; 24 h, read-out: Antibacterial activity Staphylococcus aureus (MRSA))	Antibacterial activity Staphylococcus aureus (MSSA) ([2]; 24 h)	Antibacterial activity Staphylococcus aureus (MRSA) [6, 13]	Antibacterial activity Streptococcus pneumoniae [8]
Cc1nc(-c2ccc(-c3cccc(OC(F)(F)F)c3)o2)[nH]c1-c1ccccc1 [Compound 34]	2 (MIC100 of 11-201 μg/ml)	1 to 3 µg/mL (≈ 2.6 to 7.81 µM)	1 to 3 µg/mL (≈ 2.6 to 7.81 µM)	3 to 10 µg/mL (≈ 7.81 to 26 µM)	2	< 1 µg/mL	1 to 3 µg/mL (≈ 2.6 to 7.81 µM)	1 to 3 µg/mL (≈ 2.6 to 7.81 µM)	20 to 50 µg/mL (≈ 52 to 130 µM)	–	–	–	–
Cc1[nH]c(-c2ccc(-c3ccc(Cl)c(C(F)(F)F)c3)o2)nc1-c1ccccc1 [Compound 39]	–	3 to 10 µg/mL (≈ 7.45 to 24.8 µM)	1 to 3 µg/mL (≈ 2.48 to 7.45 µM)	3 to 10 µg/mL (≈ 7.45 to 24.8 µM)	–	2 to 5 µg/mL (≈ 4.97 to 12.4 µM)	3 to 10 µg/mL (≈ 7.45 to 24.8 µM)	3 to 10 µg/mL (≈ 7.45 to 24.8 µM)	1 to 3 µg/mL (≈ 2.48 to 7.45 µM)	–	–	–	–
Cc1nc(-c2ccc(-c3ccc(Cl)c(OC(F)(F)F)c3)o2)[nH]c1-c1ccccc1 [Compound 41]	–	3 to 10 µg/mL (≈ 7.16 to 23.9 µM)	3 to 10 µg/mL (≈ 7.16 to 23.9 µM)	3 to 10 µg/mL (≈ 7.16 to 23.9 µM)	2	< 1 µg/mL	3 to 10 µg/mL (≈ 7.16 to 23.9 µM)	–	11 to 201 µg/mL (≈ 26.3 to 480 µM)	3 to 10 µg/mL (≈ 7.16 to 23.9 µM)	–	–	–
Cc1nc(-c2ccc(-c3ccc(Cl)c(OC(F)(F)F)c3)o2)[nH]c1-c1ccc(F)cc1 [Compound 43]	–	–	3 to 10 µg/mL (≈ 6.87 to 22.9 µM)	3 to 10 µg/mL (≈ 6.87 to 22.9 µM)	3	< 1 µg/mL	11 to 201 µg/mL (≈ 25.2 to 460 µM)	–	20 to 50 µg/mL (≈ 45.8 to 114 µM)	–	3 (MIC100 of 3-10 μg/ml)	2 (MIC100 of 11-201 μg/ml)	–
Cc1[nH]c(-c2ccc(-c3ccc(C(F)(F)F)cc3)o2)nc1-c1ccccc1 [Compound 45]	–	3 to 10 µg/mL (≈ 8.14 to 27.1 µM)	3 to 10 µg/mL (≈ 8.14 to 27.1 µM)	3 to 10 µg/mL (≈ 8.14 to 27.1 µM)	–	2 to 5 µg/mL (≈ 5.43 to 13.6 µM)	11 to 201 µg/mL (≈ 29.9 to 546 µM)	3 to 10 µg/mL (≈ 8.14 to 27.1 µM)	3 to 10 µg/mL (≈ 8.14 to 27.1 µM)	–	–	–	–
Cc1[nH]c(-c2ccc(-c3ccc(C(F)(F)F)cc3)o2)nc1-c1ccc(Cl)cc1 [Compound 47]	3 (MIC100 of 3-10 μg/ml)	–	1 to 3 µg/mL (≈ 2.48 to 7.45 µM)	3 to 10 µg/mL (≈ 7.45 to 24.8 µM)	–	< 1 µg/mL	3 to 10 µg/mL (≈ 7.45 to 24.8 µM)	–	3 to 10 µg/mL (≈ 7.45 to 24.8 µM)	–	–	3 (MIC100 of 3-10 μg/ml)	–
Cc1[nH]c(-c2ccc(-c3ccc(OC(F)(F)F)cc3)o2)nc1-c1ccc(Cl)cc1 [Compound 48]	–	–	3 to 10 µg/mL (≈ 7.16 to 23.9 µM)	3 to 10 µg/mL (≈ 7.16 to 23.9 µM)	2	< 1 µg/mL	3 to 10 µg/mL (≈ 7.16 to 23.9 µM)	–	11 to 201 µg/mL (≈ 26.3 to 480 µM)	–	3 (MIC100 of 3-10 μg/ml)	–	–
Cc1[nH]c(-c2ccc(-c3ccc(OC(F)(F)F)cc3Cl)o2)nc1-c1ccc(F)cc1 [Compound 51]	–	–	11 to 201 µg/mL (≈ 25.2 to 460 µM)	3 to 10 µg/mL (≈ 6.87 to 22.9 µM)	3	2 to 5 µg/mL (≈ 4.58 to 11.4 µM)	20 to 50 µg/mL (≈ 45.8 to 114 µM)	–	20 to 50 µg/mL (≈ 45.8 to 114 µM)	–	2 (MIC100 of 11-201 μg/ml)	–	3 (MIC100 of 2-5 μg/ml)
FC(F)(F)Oc1ccccc1-c1ccc(-c2nc(Cl)c(-c3ccccc3)[nH]2)o1 [Compound 64]	–	–	3 to 10 µg/mL (≈ 7.41 to 24.7 µM)	20 to 50 µg/mL (≈ 49.4 to 124 µM)	3	2 to 5 µg/mL (≈ 4.94 to 12.4 µM)	20 to 50 µg/mL (≈ 49.4 to 124 µM)	–	20 to 50 µg/mL (≈ 49.4 to 124 µM)	–	2 (MIC100 of 11-201 μg/ml)	–	–
FC(F)(F)Oc1ccccc1-c1ccc(-c2nc(-c3ccc(Cl)cc3Cl)c[nH]2)o1 [Compound 68]	–	–	11 to 201 µg/mL (≈ 25 to 458 µM)	3 to 10 µg/mL (≈ 6.83 to 22.8 µM)	2	2 to 5 µg/mL (≈ 4.55 to 11.4 µM)	11 to 201 µg/mL (≈ 25 to 458 µM)	–	3 to 10 µg/mL (≈ 6.83 to 22.8 µM)	–	2 (MIC100 of 11-201 μg/ml)	–	2 (MIC100 of 6-10 μg/ml)
Cc1ccccc1-c1cnc(-c2ccc(-c3ccccc3C(F)(F)F)o2)[nH]1 [Compound 69]	2 (MIC100 of 11-201 μg/ml)	–	11 to 201 µg/mL (≈ 29.9 to 546 µM)	20 to 50 µg/mL (≈ 54.3 to 136 µM)	2	2 to 5 µg/mL (≈ 5.43 to 13.6 µM)	–	–	–	–	3 (MIC100 of 3-10 μg/ml)	2 (MIC100 of 11-201 μg/ml)	–
